Laboratory results: patent US20070191490A1, “Withacnistin compounds for treatment of cancer” (priority 2006, published 2007)
“Also recorded” adds a separate entry of the source.

Legend:
A549 cells [1] = assay: Trypan blue exclusion assay (tumor cell death); type: cell-based, human; conditions: 10 μM, 24 h
Method: In vitro cellular proliferation and TUNEL assays. Subconfluent A549, MDA-MB-435, MDA-MB-453, MDAMB-468, v-Src transformed NIH 3T3 (v-Src/3T3), H-Ras transformed NIH 3T3 (H-Ras/3T3), and vector NIH 3T3 cells were grown in the presence of 10 μM cucurbitacin A, cucurbitacin I, withacnistin mixture, or DMSO vehicle control. After 24 hours, cells were harvested by trypsinization and counted via trypan blue exclusion assay to determine cellular viability. In all, 75,000-150,000 cells (depending on cell line) were then spun onto glass slides using a Cytospin 3 centrifuge (Thermo Shandon Inc., Pittsburgh, Pa., USA). […] TUNELpositive nuclei were counted and compared to DAPI-stained nuclei to determine the percent induction of apoptosis by the different cucurbitacin compounds. Statistical significance between control and treated tumors were evaluated by using Student's t-test.
(§1) The next objective was to determine whether the ability of the cucurbitacins and withacnistin to induce apoptosis is dependent on suppression of PJAK2 and/or P-STAT3 levels. To this end, A549 cells were treated with vehicle control, or cucurbitacins (10 μM), or the withacnistin mixture (10 μM) for 24 h, harvested the cells, and determined tumor cell death (trypan blue exclusion) and apoptosis (TUNEL) as described under Materials and methods.

A549 cells [2] = assay: TUNEL apoptosis assay, A549; type: cell-based, human; conditions: for apoptosis (TUNEL): 10 μM, 24 h
Method: (§2) In vitro cellular proliferation and TUNEL assays. Subconfluent A549, MDA-MB-435, MDA-MB-453, MDAMB-468, v-Src transformed NIH 3T3 (v-Src/3T3), H-Ras transformed NIH 3T3 (H-Ras/3T3), and vector NIH 3T3 cells were grown in the presence of 10 μM cucurbitacin A, cucurbitacin I, withacnistin mixture, or DMSO vehicle control. After 24 hours, cells were harvested by trypsinization and counted via trypan blue exclusion assay to determine cellular viability. In all, 75,000-150,000 cells (depending on cell line) were then spun onto glass slides using a Cytospin 3 centrifuge (Thermo Shandon Inc., Pittsburgh, Pa., USA). After fixing cells to the slides with 4% paraformaldehyde in PBS, pH 7.5, for 1 h at room temperature, cells were labeled for apoptotic DNA strand breaks by TUNEL reaction using an in situ cell death detection kit (Roche Applied Science, Indianapolis, Ind., USA) according to the manufacturer's instructions, then mounted in Vectashield mounting medium (Vector Laboratories, Burlingame, Calif., USA) containing 4′,6-diamidino-2-phenylindole (DAPI) to counterstain DNA. Fluorescein-labeled DNA strand breaks (TUNEL-positive cells) were then visualized using a fluorescent microscope (Leica Microsystems Inc., Bannockburn, Ill., USA) and pictures taken with a digital camera (Diagnostic Instruments, Inc., Sterling Heights, Mich., USA). TUNELpositive nuclei were counted and compared to DAPI-stained nuclei to determine the percent induction of apoptosis by the different cucurbitacin compounds. Statistical significance between control and treated tumors were evaluated by using Student's t-test.
as §1, with “methods. […]” for “methods.”

phosphotyrosine-STAT3 = assay: Inhibition of phosphotyrosine-STAT3 levels in tumor cell lines (Western blotting); type: cell-based, human; conditions: for levels of P-STAT3: 10 μM, 4 hours; for IC50: Wit tested as withacnistin mixture; for P-STAT3 levels: A549 cells (FIG. 8A); for potency compared with the withacnistin mixture (P-STAT3 suppression): A549 and MDA-MB-468 cells
Method: (§3) Western blotting. Treated cell samples were lysed in 30 mM HEPES, pH 7.5, 10 mM NaCl, 5 mM MgCl2, 25 mM NaF, 1 mM EGTA, 1% Triton X-100, 10% glycerol, 2 mM sodium orthovanadate, 10 μg/ml aprotinin, 10μ/ml soybean trypsin inhibitor, 25 μg/ml leupeptin, 2 mM PMSF, and 6.4 mg/ml p-nitrophenylphosphate. Phospho-STAT3, phospho-AKT, phospho-Src, and phospho-p42/p44 MAPK antibodies were obtained from Cell Signaling Technologies (Cambridge, Mass., USA). Phospho-JNK and whole STAT3 antibodies were purchased from Santa Cruz Biotechnology (Santa Cruz, Calif., USA); phospho-JAK2 antibody came from Upstate Biotechnology (Lake Placid, N.Y., USA). Membranes were blocked in either 5% milk in phosphate-buffered saline (PBS), pH 7.4, containing 0.1% Tween-20 (PBS-T) or 1% BSA in tris-buffered saline (TBS), pH 7.5, containing 0.1% Tween-20 (TBS-T). Phospho-specific antibodies (excepting P-MAPK and P-JNK) were incubated in 1% BSA in TBS-T while all other antibodies were diluted in 5% milk in PBS-T for either 2 h at room temperature or overnight at 4° C. HRP-conjugated secondary antibodies (Jackson ImmunoResearch, West Grove, Pa., USA) were diluted in 5% milk in either PBS-T or TBS-T at 1:1000 dilution for 1 h at room temperature. Western blots were visualized using enhanced chemiluminescence.
To this end, A549 cells (a human non-small-cell lung carcinoma line) were treated with either vehicle, cucurbitacin analogs A, B, E, or I, or withacnistin mixture (10 ∥M) for 4 hours and the cell lysates processed for Western blotting with antiphosphotyrosine STAT3 (Y705) antibody or antiphosphotyrosine JAK2 (Y1007, Y1008) antibody as described under Materials and Methods.
As further support of the specific antiphosphotyrosine STAT3, but not antiphosphotyrosine JAK2, activity of withacnistin, A549 cells, as well as two breast carcinoma cell lines (MDA-MB-435 and MDA-MB-468) that also express constitutively activated JAK2 and STAT3, were treated with the withacnistin mixture at various concentrations, and determined IC50 values of inhibition of STAT3 and JAK2 activation.

Src kinase = Src kinase (Homo sapiens, UniProt P12931); conditions: Blaskovich et al. 2003; cited from earlier work
MDA-MB-435 cells = assay: TUNEL apoptosis assay, MDA-MB-435; type: cell-based, human; conditions: 10 μM withacnistin mixture, 24 hours
Method: as §2, with “Fluorescein-labeled DNA strand breaks (TUNEL-positive cells) were then visualized using a fluorescent microscope (Leica Microsystems Inc., Bannockburn, Ill., USA) and pictures taken with a digital camera (Diagnostic Instruments, Inc., Sterling Heights, Mich., USA).” left out, “t-test. […]” for “t-test.”

MDA-MB-453 cells = assay: TUNEL apoptosis assay, MDA-MB-453; type: cell-based, human; conditions: 10 μM withacnistin mixture, 24 hours
Method: as §2, with “Fluorescein-labeled DNA strand breaks (TUNEL-positive cells) were then visualized using a fluorescent microscope (Leica Microsystems Inc., Bannockburn, Ill., USA) and pictures taken with a digital camera (Diagnostic Instruments, Inc., Sterling Heights, Mich., USA).” left out, “t-test. […]” for “t-test.”

phospho-Erk1/2 = phospho-Erk1/2 levels in A549 cells (Western blotting); type: cell-based, human; conditions: 10 μM
Method: as §3, with “Western blots were visualized using enhanced chemiluminescence.” left out
It was next determined whether withacnistin and the Cuc analogs are selective for the JAK2/STAT3 pathway over other signal transduction pathways. […]

H-Ras/3T3 cells = assay: TUNEL apoptosis assay, H-Ras/3T3; type: cell-based, murine; conditions: 10 μM withacnistin mixture, 24 hours
Method: as §2, with “Fluorescein-labeled DNA strand breaks (TUNEL-positive cells) were then visualized using a fluorescent microscope (Leica Microsystems Inc., Bannockburn, Ill., USA) and pictures taken with a digital camera (Diagnostic Instruments, Inc., Sterling Heights, Mich., USA).” left out, “t-test. […]” for “t-test.”

vector/3T3 cells = assay: TUNEL apoptosis assay, vector NIH 3T3; type: cell-based, murine; conditions: 10 μM withacnistin mixture, 24 hours
Method: as §2, with “Fluorescein-labeled DNA strand breaks (TUNEL-positive cells) were then visualized using a fluorescent microscope (Leica Microsystems Inc., Bannockburn, Ill., USA) and pictures taken with a digital camera (Diagnostic Instruments, Inc., Sterling Heights, Mich., USA).” left out, “t-test. […]” for “t-test.”

Src kinase, sequence (P12931 whole entry): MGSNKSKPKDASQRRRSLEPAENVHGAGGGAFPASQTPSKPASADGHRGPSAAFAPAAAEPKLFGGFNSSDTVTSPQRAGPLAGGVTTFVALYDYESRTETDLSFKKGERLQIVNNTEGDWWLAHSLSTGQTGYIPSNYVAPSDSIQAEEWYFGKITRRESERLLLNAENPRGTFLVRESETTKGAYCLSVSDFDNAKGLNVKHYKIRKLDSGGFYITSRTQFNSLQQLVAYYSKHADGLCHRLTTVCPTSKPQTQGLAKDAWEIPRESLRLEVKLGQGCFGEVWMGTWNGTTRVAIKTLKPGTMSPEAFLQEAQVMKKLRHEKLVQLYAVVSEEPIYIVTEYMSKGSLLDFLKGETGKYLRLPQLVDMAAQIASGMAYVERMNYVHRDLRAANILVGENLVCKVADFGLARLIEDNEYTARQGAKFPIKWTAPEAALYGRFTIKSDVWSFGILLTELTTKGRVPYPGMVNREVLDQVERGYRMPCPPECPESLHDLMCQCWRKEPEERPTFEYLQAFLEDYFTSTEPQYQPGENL

SMILES: CC(=O)OC(C)(C)/C=C/C(=O)[C@](C)(O)[C@H]1[C@H](O)C[C@@]2(C)[C@@H]3CC=C4[C@@H](C[C@H](O)C(=O)C4(C)C)[C@]3(CO)C(=O)C[C@]12C [Cuc A, cucurbitacin A]
- tumor cell death (trypan blue exclusion) (A549 cells [1]): 11%
- apoptosis (TUNEL) (A549 cells [2]): 5%
- levels of P-STAT3 (phosphotyrosine-STAT3; A549 cells): had no effect; also recorded: little inhibitory activity
- IC50 (phosphotyrosine-STAT3; A549 cells): > 10 µM
- IC50 (phosphotyrosine-STAT3; MDA-MB-435 cells): > 10 µM
- IC50 (phosphotyrosine-STAT3; MDA-MB-468 cells): > 10 µM

SMILES: CC(C)(O)/C=C/C(=O)[C@](C)(O)[C@H]1[C@H](O)C[C@@]2(C)[C@@H]3CC=C4[C@@H](C=C(O)C(=O)C4(C)C)[C@]3(C)C(=O)C[C@]12C [Cuc I, cucurbitacin I]
- inhibition of Src kinase in vitro (Src kinase): not inhibited
- P-STAT3 levels (phosphotyrosine-STAT3): suppressed the levels of both
- levels of P-STAT3 (phosphotyrosine-STAT3; A549 cells): inhibited
- IC50 (phosphotyrosine-STAT3; A549 cells): 0.8 ± 0.7 µM
- IC50 (phosphotyrosine-STAT3; MDA-MB-435 cells): 4.6 ± 1.9 µM
- IC50 (phosphotyrosine-STAT3; MDA-MB-468 cells): 7.5 ± 1.5 µM

SMILES: CC(=O)OC[C@]12CC[C@H]3[C@@H](C[C@H]4O[C@]45[C@@H](O)C=CC(=O)[C@]35C)[C@@H]1CC[C@@H]2[C@H](C)[C@H]1CC(C)=C(C)C(=O)O1 [withacnistin]
- increase of percentage of apoptotic cells compared to vehicle control (MDA-MB-435 cells): 25.9 fold
- increase of percentage of apoptotic cells compared to vehicle control (MDA-MB-453 cells): 4.7 fold
- levels of phosphorylated Erk1/2 (phospho-Erk1/2): significantly increased
- apoptosis (TUNEL-positive cells) (H-Ras/3T3 cells): 7.3±4.7%
- fold increase of apoptosis over control (H-Ras/3T3 cells): 12.5 fold
- apoptosis (TUNEL-positive cells) (vector/3T3 cells): 7.3±3.9%
- fold increase of apoptosis over control (vector/3T3 cells): 4.2 fold
- tumor cell death (trypan blue exclusion) (A549 cells [1]): 60%
- increase of percentage of apoptotic tumor cells compared to vehicle-treated control (A549 cells [2]; 10 μM withacnistin mixture, 24 hours): 27.4 fold
- apoptosis (TUNEL) (A549 cells [2]): 28%
- P-STAT3 (phosphotyrosine-STAT3; A549 and MDA-MB468 cells, 4-hour treatment (FIGS. 7A, 7B)): inhibit
- potency compared with the withacnistin mixture (P-STAT3 suppression) (phosphotyrosine-STAT3; listed as W): slightly more potent than WM
- potency compared with the withacnistin mixture (P-STAT3 suppression) (phosphotyrosine-STAT3; listed as pure withacnistin): more potent than the withacnistin mixture
- P-STAT3 levels (phosphotyrosine-STAT3): suppressed
- IC50 (phosphotyrosine-STAT3; A549 cells): 3.7 ± 1.7 µM
- IC50 (phosphotyrosine-STAT3; MDA-MB-435 cells): 0.9 ± 0.6 µM
- IC50 (phosphotyrosine-STAT3; MDA-MB-468 cells): 1.4 ± 0.7 µM
